Assay results: BindingDB's records for doi:10.7270/Q2930RK5 (University of Pittsburgh, 2008)

Target: Serine/threonine-protein kinase PLK1 (Homo sapiens, UniProt P53350)
Test: activity against human Plk1 kinase – biochemical, selectivity assay for PKD inhibitor project, dose response (AID 1383)

Chain of Serine/threonine-protein kinase PLK1 (P53350 whole entry): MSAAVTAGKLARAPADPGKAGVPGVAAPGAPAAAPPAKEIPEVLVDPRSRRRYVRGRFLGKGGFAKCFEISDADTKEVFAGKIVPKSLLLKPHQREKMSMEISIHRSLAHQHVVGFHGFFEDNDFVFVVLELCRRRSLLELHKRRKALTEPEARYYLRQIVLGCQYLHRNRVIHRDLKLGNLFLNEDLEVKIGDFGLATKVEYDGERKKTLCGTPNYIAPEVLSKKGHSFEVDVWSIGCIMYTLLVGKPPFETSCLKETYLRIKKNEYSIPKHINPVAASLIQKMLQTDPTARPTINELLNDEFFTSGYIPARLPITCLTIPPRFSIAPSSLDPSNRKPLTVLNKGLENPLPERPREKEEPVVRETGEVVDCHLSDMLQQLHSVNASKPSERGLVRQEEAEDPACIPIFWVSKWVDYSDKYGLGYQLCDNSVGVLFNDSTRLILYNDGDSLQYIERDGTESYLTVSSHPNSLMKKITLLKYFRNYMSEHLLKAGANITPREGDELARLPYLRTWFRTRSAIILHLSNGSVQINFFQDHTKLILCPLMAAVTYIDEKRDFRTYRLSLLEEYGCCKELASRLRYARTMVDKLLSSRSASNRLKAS

SMILES: N=C(N)NC(=O)c1nc(Cl)c(N)nc1N [3,5-diamino-N-carbamimidoyl-6-chloropyrazine-2-carboxamide]
- IC50: 6.63 µM

SMILES: CC(=O)Oc1cc(OC(C)=O)c2c(C)cc(=O)oc2c1 [(5-acetyloxy-4-methyl-2-oxochromen-7-yl) acetate]
- IC50: > 50 µM

SMILES: Cc1cc(NCCCN)nc(-c2ccccc2O)n1 [MLS000079650]
- IC50: > 50 µM

SMILES: CCC(=O)Nc1c2c(nn1-c1ccccc1C)CSC2 [MLS000087884]
- IC50: > 50 µM

SMILES: CS(=O)(=O)N1CCN(c2ccccc2NC(=O)c2ccc(Br)o2)CC1 [MLS000123947]
- IC50: > 50 µM

SMILES: NC(=O)c1cn([C@@H]2O[C@H](CO)[C@@H](O)[C@H]2O)c2ncnc(N)c12 [MLS000517268]
- IC50: 12.1 µM

SMILES: O=C(Nc1ccc(CN2CCOCC2)cc1)c1ccc(-c2cccc(Cl)c2)o1 [MLS000557592]
- IC50: > 50 µM

SMILES: CCC1=NNc2cccc3c(OC)ccc1c23 [SMR000140796]
- IC50: > 50 µM

SMILES: Clc1cncc(Cl)c1N=NCc1ccncc1 [SMR000206620]
- IC50: > 50 µM
